Reference: patent publication US5591891A, “N-[Mercaptoacyl (amino acid or peptide ) ] compounds and S-lipophiIic aliphatic carbonyl derivatives thereof as antihypertensives” (Institut National de la Sante et de la Recherche Medicale …, priority 1994, dated 1997)

Legend:
[1] = biological target: peptidyldipeptidase A (ACE) (Homo sapiens, UniProt P12821); experiment: Enzymatic inhibition of peptidyldipeptidase A, Z-Phe-His-Leu as substrate; assay type: biochemical
[2] = biological target: neutral endopeptidase (NEP) (Homo sapiens, UniProt P08473); experiment: Enzymatic inhibition of neutral endopeptidase, [3H]D-Ala2-Leu-enkephalin as substrate; assay type: biochemical
neutral endopeptidase (NEP), sequence (P08473 whole entry, species assumed): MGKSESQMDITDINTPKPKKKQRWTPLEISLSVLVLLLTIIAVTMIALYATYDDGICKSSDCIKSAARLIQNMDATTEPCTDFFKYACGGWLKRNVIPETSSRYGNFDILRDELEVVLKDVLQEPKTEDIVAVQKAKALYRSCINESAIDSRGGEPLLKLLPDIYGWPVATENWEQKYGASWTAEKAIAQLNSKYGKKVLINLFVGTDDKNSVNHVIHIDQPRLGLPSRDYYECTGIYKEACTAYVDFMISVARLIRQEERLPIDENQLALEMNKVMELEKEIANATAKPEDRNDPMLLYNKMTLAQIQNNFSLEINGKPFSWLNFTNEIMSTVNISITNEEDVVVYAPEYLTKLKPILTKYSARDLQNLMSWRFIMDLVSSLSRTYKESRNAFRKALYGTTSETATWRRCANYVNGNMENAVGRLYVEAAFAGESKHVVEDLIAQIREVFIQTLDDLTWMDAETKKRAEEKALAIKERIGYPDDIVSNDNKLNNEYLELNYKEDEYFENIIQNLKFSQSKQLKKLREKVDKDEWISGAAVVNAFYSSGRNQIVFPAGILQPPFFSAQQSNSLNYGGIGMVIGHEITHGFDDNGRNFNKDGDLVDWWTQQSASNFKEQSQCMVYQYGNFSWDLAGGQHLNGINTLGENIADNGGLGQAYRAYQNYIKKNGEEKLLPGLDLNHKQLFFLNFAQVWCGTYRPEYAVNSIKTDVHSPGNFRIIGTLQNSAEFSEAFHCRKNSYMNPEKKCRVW
Description: The enzymatic inhibitory properties of compounds according to the present invention are measured using [^3 H]D-Ala^2 -Leu-enkephalin as a substrate for neutral endopeptidase as described previously by Llorens et al., Biochem. Biophys.

[3] = biological target: T1, ACE (Mus musculus, UniProt P09470); experiment: In vivo inhibition of ACE in mouse after oral administration ([3H]Trandaloprilate binding); settings: oral 2.6×10^-5 mole/kg, mean of three determinations
T1 construct: from tissue; host or cells: mouse tissue in vivo
T1 sequence (P09470 35-1312): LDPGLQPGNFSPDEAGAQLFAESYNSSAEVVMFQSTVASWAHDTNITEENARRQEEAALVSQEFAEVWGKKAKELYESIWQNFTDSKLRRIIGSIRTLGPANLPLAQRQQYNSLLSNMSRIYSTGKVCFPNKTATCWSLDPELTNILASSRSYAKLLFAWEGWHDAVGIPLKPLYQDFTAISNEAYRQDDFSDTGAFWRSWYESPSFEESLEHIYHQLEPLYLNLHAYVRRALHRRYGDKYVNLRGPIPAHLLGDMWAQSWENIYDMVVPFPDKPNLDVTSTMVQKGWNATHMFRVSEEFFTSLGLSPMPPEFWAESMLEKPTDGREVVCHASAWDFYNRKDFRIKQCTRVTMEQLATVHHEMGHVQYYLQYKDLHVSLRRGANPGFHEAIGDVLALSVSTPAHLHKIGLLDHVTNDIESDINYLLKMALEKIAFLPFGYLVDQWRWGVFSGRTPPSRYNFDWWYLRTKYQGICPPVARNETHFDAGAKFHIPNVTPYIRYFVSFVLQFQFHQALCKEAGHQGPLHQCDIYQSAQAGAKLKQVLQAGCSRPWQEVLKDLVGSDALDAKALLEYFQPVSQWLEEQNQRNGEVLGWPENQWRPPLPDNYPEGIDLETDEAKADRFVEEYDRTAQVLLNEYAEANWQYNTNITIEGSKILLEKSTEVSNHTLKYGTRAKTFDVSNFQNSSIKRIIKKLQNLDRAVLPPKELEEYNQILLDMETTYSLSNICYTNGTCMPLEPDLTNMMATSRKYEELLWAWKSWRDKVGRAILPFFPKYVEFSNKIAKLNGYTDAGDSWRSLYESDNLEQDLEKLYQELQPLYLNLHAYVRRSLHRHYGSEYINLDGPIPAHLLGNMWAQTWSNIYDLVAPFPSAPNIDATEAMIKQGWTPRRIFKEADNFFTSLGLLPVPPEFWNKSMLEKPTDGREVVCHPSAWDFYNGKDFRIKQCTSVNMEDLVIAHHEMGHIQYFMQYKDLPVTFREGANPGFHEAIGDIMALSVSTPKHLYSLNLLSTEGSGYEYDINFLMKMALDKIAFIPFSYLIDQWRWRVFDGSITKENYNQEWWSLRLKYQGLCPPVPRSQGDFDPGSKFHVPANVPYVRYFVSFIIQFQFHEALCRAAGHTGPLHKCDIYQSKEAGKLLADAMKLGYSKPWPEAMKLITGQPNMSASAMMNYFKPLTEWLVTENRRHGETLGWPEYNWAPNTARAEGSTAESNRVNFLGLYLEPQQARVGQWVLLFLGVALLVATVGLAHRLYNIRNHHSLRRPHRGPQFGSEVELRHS
Text: (§1) [S,S,S]-N-[2-Adamantoylthiomethyl-1-oxo-3-phenylbutyl]alanine, a diastereomeric mixture of N-[2-acetylthiomethyl-1-oxo-3-phenylbutyl]alanine (four diastereomers) and a control solution of saline are orally administered at a concentration of 2.6×10^-5 mole/kg) in mice at t=o.
(§2) The inhibition of NEP in the kidney is expressed as the difference (in %) between specific [^3 H]HACBOGly binding in the absence of inhibitor (controls injected with saline) and in the presence of inhibitor. The inhibition values in Table V are the mean value of three determinations.
The protocol in Example 91 is used also to determine […] inhibition except for the following: the selective tritiated ACE inhibitor is [^3 H]Trandaloprilate (0.5 μCi); and the non-specific binding is determined by the co-administration of [^3 H]Trandaloprilate with 1000 eq. of captopril.

[4] = biological target: T2, NEP (Mus musculus, UniProt Q61391); experiment: In vivo inhibition of NEP in mouse kidney after oral administration ([3H]HACBOGly binding); settings: oral 2.6×10^-5 mole/kg, mean of three determinations
T2 construct: the kidney is rapidly set apart and homogenized at 4° C. in a Tris HCl buffer; from tissue; host or cells: mouse kidney (in vivo, then homogenate)
T2 sequence (Q61391 1-750): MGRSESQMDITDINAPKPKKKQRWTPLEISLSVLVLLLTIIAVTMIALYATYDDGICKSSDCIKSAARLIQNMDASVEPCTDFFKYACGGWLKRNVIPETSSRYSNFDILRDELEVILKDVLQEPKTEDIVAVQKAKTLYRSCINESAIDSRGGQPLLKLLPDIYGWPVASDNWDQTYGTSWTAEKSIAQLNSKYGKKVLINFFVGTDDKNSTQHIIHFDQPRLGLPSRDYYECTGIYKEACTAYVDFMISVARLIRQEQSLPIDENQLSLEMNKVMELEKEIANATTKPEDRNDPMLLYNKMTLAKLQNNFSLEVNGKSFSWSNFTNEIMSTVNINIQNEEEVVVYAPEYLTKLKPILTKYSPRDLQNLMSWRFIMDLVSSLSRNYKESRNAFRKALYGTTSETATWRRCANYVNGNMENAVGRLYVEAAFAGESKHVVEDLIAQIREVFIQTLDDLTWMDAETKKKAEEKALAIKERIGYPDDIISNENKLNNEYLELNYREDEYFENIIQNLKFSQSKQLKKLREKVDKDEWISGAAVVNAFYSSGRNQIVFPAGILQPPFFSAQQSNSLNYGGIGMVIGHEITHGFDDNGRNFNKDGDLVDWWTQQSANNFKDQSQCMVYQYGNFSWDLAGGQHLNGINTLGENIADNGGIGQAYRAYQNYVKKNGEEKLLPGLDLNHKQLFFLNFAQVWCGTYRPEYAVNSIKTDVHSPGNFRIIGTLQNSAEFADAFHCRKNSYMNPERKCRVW
Text: as §1, §2

peptidyldipeptidase A (ACE), sequence (P12821 30-1306, species assumed): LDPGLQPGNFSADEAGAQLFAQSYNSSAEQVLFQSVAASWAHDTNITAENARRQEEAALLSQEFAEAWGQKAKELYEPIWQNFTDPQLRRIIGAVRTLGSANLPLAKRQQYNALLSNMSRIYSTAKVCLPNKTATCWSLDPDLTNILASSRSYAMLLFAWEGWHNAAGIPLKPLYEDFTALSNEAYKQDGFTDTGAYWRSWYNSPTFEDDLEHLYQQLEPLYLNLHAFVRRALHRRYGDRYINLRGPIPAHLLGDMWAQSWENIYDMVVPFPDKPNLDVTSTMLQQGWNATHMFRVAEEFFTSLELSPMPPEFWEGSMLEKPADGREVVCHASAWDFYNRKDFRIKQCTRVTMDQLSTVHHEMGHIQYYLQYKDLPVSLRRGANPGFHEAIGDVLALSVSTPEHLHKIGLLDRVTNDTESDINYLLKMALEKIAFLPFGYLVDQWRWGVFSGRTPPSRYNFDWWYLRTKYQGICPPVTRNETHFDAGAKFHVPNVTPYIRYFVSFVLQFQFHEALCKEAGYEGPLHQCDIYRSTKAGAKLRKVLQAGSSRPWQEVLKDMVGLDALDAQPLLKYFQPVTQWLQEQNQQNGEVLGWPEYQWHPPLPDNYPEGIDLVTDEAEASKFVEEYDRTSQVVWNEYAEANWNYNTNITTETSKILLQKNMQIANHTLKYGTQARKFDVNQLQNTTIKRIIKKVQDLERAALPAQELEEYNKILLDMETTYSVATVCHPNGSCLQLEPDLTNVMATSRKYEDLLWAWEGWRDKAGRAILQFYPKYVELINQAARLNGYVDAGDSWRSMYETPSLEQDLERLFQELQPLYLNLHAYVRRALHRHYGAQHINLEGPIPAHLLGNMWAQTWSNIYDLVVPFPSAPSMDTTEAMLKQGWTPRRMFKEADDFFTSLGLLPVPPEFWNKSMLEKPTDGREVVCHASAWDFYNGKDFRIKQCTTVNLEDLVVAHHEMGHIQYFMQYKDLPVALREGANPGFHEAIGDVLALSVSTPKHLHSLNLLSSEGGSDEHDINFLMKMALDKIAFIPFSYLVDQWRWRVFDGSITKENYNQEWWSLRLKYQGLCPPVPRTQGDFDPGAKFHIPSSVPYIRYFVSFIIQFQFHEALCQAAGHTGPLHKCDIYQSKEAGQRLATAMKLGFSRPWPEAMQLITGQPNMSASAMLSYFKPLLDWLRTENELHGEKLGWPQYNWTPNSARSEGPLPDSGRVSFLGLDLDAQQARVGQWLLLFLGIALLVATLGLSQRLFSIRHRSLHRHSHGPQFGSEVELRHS

Row | IC50 ([1]; Table IV) [nM] | IC50 ([2]; Table IV) [nM] | IC50 ([1]; Table III) [nM] | IC50 ([2]; Table III) [nM] | SMILES | other results
1 | 52 | 3.1 | – | – | CC(c1ccccc1)C(CSS)C(=O)N[C@@H](Cc1ccc(O)cc1)C(=O)O (stereo partly drawn) [88(B), N-(2-mercaptothiomethyl-1-oxo-3-phenylbutyl)tyrosine] | –
2 | – | – | – | – | C[C@H](NC(=O)[C@@H](CSC(=O)C12CC3CC(CC(C3)C1)C2)[C@H](C)c1ccccc1)C(=O)O [91(A), [S,S,S]--N-[2-adamantoylthiomethyl-1-oxo-3-phenylbutyl]alanine] | % Inhibition ACE ([3]; time 30 min): 75%; % Inhibition ACE ([3]; time 240 min): 30%; % Inhibition NEP ([4]; time 30 min): 85%; % Inhibition NEP ([4]; time 240 min): 70%
3 | – | – | – | – | CC(=O)SCC(C(=O)N[C@@H](C)C(=O)O)C(C)c1ccccc1 (stereo partly drawn) [91(B), N-[2-acetylthiomethyl-1-oxo-3-phenylbutyl]alanine] | % Inhibition ACE ([3]; time 30 min): 30%; % Inhibition ACE ([3]; time 240 min): 15%; % Inhibition NEP ([4]; time 30 min): 65%; % Inhibition NEP ([4]; time 240 min): 45%
4 | – | – | 4 ± 1 | 5 ± 2 | CC(C)[C@H](NC(=O)C(S)Cc1ccccc1)C(=O)N[C@@H](Cc1ccc(O)cc1)C(=O)O (stereo partly drawn) [Example 19, N-(2-Mercapto-3-phenylpropanoyl)-Val-Tyr] | –
5 | – | – | 2.5 ± 0.1 | 3.2 ± 0.3 | CC[C@H](C)[C@H](NC(=O)C(S)Cc1ccccc1)C(=O)N[C@@H](Cc1ccc(O)cc1)C(=O)OC (stereo partly drawn) [Example 20, N-(2-Mercapto-3-phenylpropanoyl)-Ile-Tyr-OMe] | –
6 | – | – | 2 ± 1 | 5 ± 2 | CCC(C)C(NC(=O)C(S)Cc1ccccc1)C(=O)N1CCCCC1C(=O)O (stereo not drawn) [Example 21, N-(2-Mercapto-3-phenylpropanoyl)-Ile-Pip] | –
7 | – | – | 30 ± 5 | 18 ± 2 | CCCC[C@H](NC(=O)C(S)Cc1ccccc1)C(=O)N[C@@H](Cc1ccc(O)cc1)C(=O)O (stereo partly drawn) [Example 22, N-(2-Mercapto-3-phenylpropanoyl)-Nle-Tyr] | –
8 | – | – | 30 ± 5 | 3 ± 2 | CC(C)C[C@H](NC(=O)C(S)Cc1ccccc1)C(=O)N[C@@H](Cc1ccc(O)cc1)C(=O)O (stereo partly drawn) [Example 23, N-(2-Mercapto-3-phenylpropanoyl)-Leu-Tyr] | –
9 | – | – | 8 ± 2 | 3 ± 1 | CCC(C)C(S)C(=O)N[C@@H](Cc1ccccc1)C(=O)N[C@@H](Cc1ccc(O)cc1)C(=O)O (stereo partly drawn) [Example 24, N-(2-Mercapto-3-methylpentanoyl)-Phe-Tyr] | –
10 | – | – | 2 ± 0.5 | 5 ± 2 | CCC(C)C(S)C(=O)NC(C(=O)N[C@@H](Cc1ccc(O)cc1)C(=O)O)C(C)C (stereo partly drawn) [Example 25, N-(2-Mercapto-3-methylpentanoyl)-Val-Tyr] | –
11 | – | – | 8 ± 2 | 10 ± 1 | CC(C)C(NC(=O)C(S)CCc1ccccc1)C(=O)N[C@@H](Cc1ccc(O)cc1)C(=O)O (stereo partly drawn) [Example 26, N-(2-Mercapto-4-phenylbutanoyl)-Val-Tyr] | –
12 | – | – | 0.3 ± 0.1 | 1.4 ± 0.2 | CC[C@H](C)[C@H](NC(=O)C(S)C(C)C)C(=O)N[C@@H](Cc1ccc(O)cc1)C(=O)O (stereo partly drawn) [Example 27, N-(2-Mercapto-3-methylbutanoyl)-Ile-Tyr] | –
13 | – | – | 3.5 ± 0.5 | 4.5 ± 0.5 | CC[C@H](C)[C@H](NC(=O)C(S)c1ccccc1)C(=O)N[C@@H](Cc1ccc(O)cc1)C(=O)O (stereo partly drawn) [Example 28, N-(2-Mercapto-2-phenylacetyl)-Ile-Tyr] | –
14 | 1.8 | – | – | – | CC(c1ccccc1)C(CS)C(=O)N[C@@H](Cc1ccc(O)cc1)C(=O)O (stereo partly drawn) [Example 61, N-(2-Mercaptomethyl-1-oxo-3-phenylbutyl)tyrosine] | –
15 | 25 | 1.3 | – | – | CC(c1ccccc1)C(CS)C(=O)NCC(=O)O (stereo not drawn) [Example 63, N-(2-Mercaptomethyl-1-oxo-3-phenylbutyl)glycine] | –
16 | 71 | 4 | – | – | CC(c1ccccc1)C(CS)C(=O)N[C@@H](COCc1ccccc1)C(=O)O (stereo partly drawn) [Example 65, N-(2-Mercaptomethyl-1-oxo-3-phenylbutyl)-O-benzylserine] | –
17 | 2.8 | 2 | – | – | CC(c1ccccc1)C(CS)C(=O)N[C@@H](C)C(=O)O (stereo partly drawn) [Example 67, N-(2-Mercaptomethyl-1-oxo-3-phenylbutyl)alanine] | –
18 | 5.8 | – | – | – | CCCC[C@H](NC(=O)C(CS)C(C)c1ccccc1)C(=O)O (stereo partly drawn) [Example 69, N-(2-Mercaptomethyl-1-oxo-3-phenylbutyl)norleucine] | –
19 | 7.9 | 1.3 | – | – | C[C@H](NC(=O)C(CS)C1CCc2ccccc21)C(=O)O (stereo partly drawn) [Example 71, N-[3-Mercapto-2-(1-indanyl)-1-oxopropyl]alanine] | –
20 | 6.2 | 3.5 | – | – | CC(c1ccc(O)cc1)C(CS)C(=O)N[C@@H](C)C(=O)O (stereo partly drawn) [Example 73, N-[2-Mercaptomethyl,3-(4-hydroxyphenyl)-1-oxobutyl]alanine] | –
21 | 3.5 | 1.8 | – | – | CC(c1ccc(O)cc1)C(CS)C(=O)N[C@@H](Cc1ccc(O)cc1)C(=O)O (stereo partly drawn) [Example 75, N-[2-Mercaptomethyl-3-(4-hydroxyphenyl)-1-oxobutyl]tyrosine] | –
22 | 8.5 | 1.9 | – | – | CC(=O)SCC(C(=O)N[C@@H](C)C(=O)O)C(C)c1ccc(F)cc1 (stereo partly drawn) [Example 78, N-[2-Acetylthiomethyl-3-(4-fluorophenyl)-1-oxobutyl]alanine] | –
23 | 5.9 | 4.8 | – | – | CC(=O)SC(C(=O)N[C@@H](Cc1ccc(O)cc1)C(=O)O)C(C)c1ccc(F)cc1 (stereo partly drawn) [Example 80, N-[2-Acetylthio-3-(4-fluorophenyl)-1-oxobutyl]tyrosine] | –
24 | 5 | 3 | – | – | CC(c1ccc(F)c(F)c1)C(CS)C(=O)N[C@@H](C)C(=O)O (stereo partly drawn) [Example 82, N-[2-Mercaptomethyl-3-(3,4-difluorophenyl)-1-oxobutyl]alanine] | –
25 | 3.5 | 6.3 | – | – | CC(c1ccc(F)c(F)c1)C(CS)C(=O)N[C@@H](Cc1ccc(O)cc1)C(=O)O (stereo partly drawn) [Example 84, N-[2-Mercaptomethyl-3-(3,4-difluorophenyl)-1-oxobutyl]tyrosine] | –
26 | 3 | 1 | – | – | CC(c1ccccc1)C(CSS)C(=O)N[C@@H](Cc1ccc(O)cc1)C(=O)O (stereo partly drawn) [Example 88(A), N-(2-Mercaptothiomethyl-1-oxo-3-phenylbutyl)tyrosine] | –
